Reference: BindingDB's records for patent US11161864 (Venenum Biodesign, 2021)

Target: T1, Stimulator of interferon genes protein [154-378] (Mus musculus, UniProt Q3TBT3)
T1 construct: 154-378
T1 sequence (Q3TBT3 whole entry): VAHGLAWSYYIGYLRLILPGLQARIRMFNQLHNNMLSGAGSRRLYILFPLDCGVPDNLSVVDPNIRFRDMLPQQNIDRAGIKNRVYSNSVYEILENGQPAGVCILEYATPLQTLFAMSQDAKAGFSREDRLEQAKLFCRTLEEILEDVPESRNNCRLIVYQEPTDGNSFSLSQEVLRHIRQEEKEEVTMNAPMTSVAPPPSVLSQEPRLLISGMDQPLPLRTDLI
Test: Binding Assay

Question: With NC(=O)c1cnc2c(c1)nc1n2CCOP(=O)(S)OC[C@H]2O[C@@H](n3cnc4c(=O)[nH]c(N)nc43)[C@H](OP(=O)(S)OC1)[C@@H]2F (stereo partly specified) [US11161864, Example 37A] as the compound, how does the IC50 read?
Answer: Its IC50 is less than 1000 nM.
